Measurements: patent publication US12570682B2, “Method for increasing bulk density of nicotinamide mononucleotide crystal and crystal thereof” (BONTAC BIO-ENGINEERING (SHENZHEN) CO., LTD, priority 2021, dated 2026)
Read-outs that look alike come from different tables or passages of the source.

Legend:
[1] = loose bulk density measurement of nicotinamide mononucleotide crystals (sieve, weigh, graduated cylinder); format: physicochemical
Procedure: Bulk densities mentioned below are all loose bulk densities, and specific values are measured by the following method: taking an object to be tested, sieving the object (1.00 mm No. 18), accurately weighing the object, slowly pouring the object into a glass graduated cylinder, scraping the top, recording an apparent volume, and calculating the bulk density; and taking 3 same samples for parallel measurement, recording the readings, and using an average value as a measurement result.

[2] = prior-art crystals (CN108697722A; CN11269505A embodiment data); cited from earlier work
[3] = CN11269505A embodiment data; cited from earlier work
[4] = loose bulk density, average of 3 parallel samples

Structure (SMILES): NC(=O)c1ccc[n+]([C@@H]2O[C@H](COP(=O)([O-])O)[C@@H](O)[C@H]2O)c1 [Example 3, nicotinamide mononucleotide]
- Bulk density ([1]; pH value of aqueous solution of NMN 3.5, water content 10%, cooling 10° C./h to 10° C.): 0.89 g/mL
- Bulk density ([1]; pH value of aqueous solution of NMN 4.5, water content 10%, cooling 10° C./h to 10° C.): 1.08 g/mL
- Bulk density ([1]; pH value of aqueous solution of NMN 5.0, water content 10%, cooling 10° C./h to 10° C.): 1.09 g/mL
- Bulk density ([1]; pH value of aqueous solution of NMN 5.5, water content 10%, cooling 10° C./h to 10° C.): 1.09 g/mL
- Bulk density ([1]; pH value of aqueous solution of NMN 6.0, water content 10%, cooling 10° C./h to 10° C.): 1.07 g/mL
- Bulk density ([1]; pH value of aqueous solution of NMN 6.5, water content 10%, cooling 10° C./h to 10° C.): 1.08 g/mL
- Bulk density ([1]; pH value of aqueous solution of NMN 7.0, water content 10%, cooling 10° C./h to 10° C.): 0.81 g/mL

Structure (SMILES): NC(=O)c1ccc[n+]([C@@H]2O[C@H](COP(=O)([O-])O)[C@@H](O)[C@H]2O)c1 [Example 2, nicotinamide mononucleotide]
- Bulk density ([1]; cooling rate 1, crystallization end temperature 10, water content 10%, pH 3.5): 0.93 g/mL
- Bulk density ([1]; cooling rate 1, crystallization end temperature 18, water content 10%, pH 3.5): 0.88 g/mL
- Bulk density ([1]; cooling rate 3, crystallization end temperature 10, water content 10%, pH 3.5): 0.93 g/mL
- Bulk density ([1]; cooling rate 5, crystallization end temperature 5, water content 10%, pH 3.5): 0.92 g/mL
- Bulk density ([1]; cooling rate 5, crystallization end temperature 10, water content 10%, pH 3.5): 0.92 g/mL
- Bulk density ([1]; cooling rate 5, crystallization end temperature 18, water content 10%, pH 3.5): 0.88 g/mL
- Bulk density ([1]; cooling rate 10, crystallization end temperature 5, water content 10%, pH 3.5): 0.88 g/mL
- Bulk density ([1]; cooling rate 10, crystallization end temperature 10, water content 10%, pH 3.5): 0.89 g/mL
- Bulk density ([1]; cooling rate 10, crystallization end temperature 18, water content 10%, pH 3.5): 0.84 g/mL
- Bulk density ([1]; cooling rate 15, crystallization end temperature 8, water content 10%, pH 3.5): 0.84 g/mL
- Bulk density ([1]; cooling rate 15, crystallization end temperature 10, water content 10%, pH 3.5): 0.84 g/mL
- Bulk density ([1]; cooling rate 15, crystallization end temperature 18, water content 10%, pH 3.5): 0.82 g/mL
- Bulk density ([1]; cooling rate 15, crystallization end temperature 25, water content 10%, pH 3.5): 0.34 g/mL
- Bulk density ([1]; cooling rate 20, crystallization end temperature 10, water content 10%, pH 3.5): 0.35 g/mL

Structure (SMILES): NC(=O)c1ccc[n+]([C@@H]2O[C@H](COP(=O)([O-])O)[C@@H](O)[C@H]2O)c1 [Example 1, nicotinamide mononucleotide]
- Bulk density ([1]; water content of semi-solid 1%, pH 3.5, ethanol, cooling 10° C./h to 10° C.): 1.05 g/mL
- Bulk density ([1]; water content of semi-solid 5%, pH 3.5, ethanol, cooling 10° C./h to 10° C.): 1.03 g/mL
- Bulk density ([1]; water content of semi-solid 10%, pH 3.5, ethanol, cooling 10° C./h to 10° C.): 0.89 g/mL
- Bulk density ([1]; water content of semi-solid 15%, pH 3.5, ethanol, cooling 10° C./h to 10° C.): 0.77 g/mL
- Bulk density ([1]; water content of semi-solid 20%, pH 3.5, ethanol, cooling 10° C./h to 10° C.): 0.67 g/mL
- Bulk density ([1]; water content of semi-solid 25%, pH 3.5, ethanol, cooling 10° C./h to 10° C.): 0.56 g/mL
- Bulk density ([1]; water content of semi-solid 35%, pH 3.5, ethanol, cooling 10° C./h to 10° C.): 0.44 g/mL
- Bulk density ([1]; water content of semi-solid 50%, pH 3.5, ethanol, cooling 10° C./h to 10° C.): 0.33 g/mL
- Bulk density ([1]; water content of semi-solid 75%, pH 3.5, ethanol, cooling 10° C./h to 10° C.): 0.26 g/mL

Structure (SMILES): NC(=O)c1ccc[n+]([C@@H]2O[C@H](COP(=O)([O-])O)[C@@H](O)[C@H]2O)c1 [Example 6, nicotinamide mononucleotide]
- Bulk density [1, 4]: 1.21 g/mL

Structure (SMILES): NC(=O)c1ccc[n+]([C@@H]2O[C@H](COP(=O)([O-])O)[C@@H](O)[C@H]2O)c1 [Comparative Example 4, nicotinamide mononucleotide]
- Bulk density [1, 4]: 0.56 g/mL

Structure (SMILES): NC(=O)c1ccc[n+]([C@@H]2O[C@H](COP(=O)([O-])O)[C@@H](O)[C@H]2O)c1 [Example 7, nicotinamide mononucleotide]
- Bulk density [1, 4]: 0.95 g/mL

Structure (SMILES): NC(=O)c1ccc[n+]([C@@H]2O[C@H](COP(=O)([O-])O)[C@@H](O)[C@H]2O)c1 [form 1, β-nicotinamide mononucleotide, reference compound]
- Bulk density ([1]; loose bulk density, average of 3 parallel samples, listed as nicotinamide mononucleotide anhydrous crystal): 0.20 g/mL
- Bulk density [2]: about 0.2 g/ml

Structure (SMILES): NC(=O)c1ccc[n+]([C@@H]2O[C@H](COP(=O)([O-])O)[C@@H](O)[C@H]2O)c1 [high-density NMN, nicotinamide mononucleotide]
- Bulk density [2]: 0.52 g/mL
- tap density [3]: 0.71 g/mL

Structure (SMILES): NC(=O)c1ccc[n+]([C@@H]2O[C@H](COP(=O)([O-])O)[C@@H](O)[C@H]2O)c1 [Example 4, nicotinamide mononucleotide]
- Bulk density [1, 4]: 1.02 g/mL

Structure (SMILES): NC(=O)c1ccc[n+]([C@@H]2O[C@H](COP(=O)([O-])O)[C@@H](O)[C@H]2O)c1 [Comparative Example 1, nicotinamide mononucleotide]
- Bulk density [1, 4]: 0.23 g/mL

Structure (SMILES): NC(=O)c1ccc[n+]([C@@H]2O[C@H](COP(=O)([O-])O)[C@@H](O)[C@H]2O)c1 [Example 8, nicotinamide mononucleotide]
- Bulk density [1, 4]: 1.24 g/mL

Structure (SMILES): NC(=O)c1ccc[n+]([C@@H]2O[C@H](COP(=O)([O-])O)[C@@H](O)[C@H]2O)c1 [form 2, β-nicotinamide mononucleotide]
- Bulk density [2]: about 0.2 g/ml

Structure (SMILES): NC(=O)c1ccc[n+]([C@@H]2O[C@H](COP(=O)([O-])O)[C@@H](O)[C@H]2O)c1 [Comparative Example 3, nicotinamide mononucleotide]
- Bulk density [1, 4]: 0.40 g/mL

Structure (SMILES): NC(=O)c1ccc[n+]([C@@H]2O[C@H](COP(=O)([O-])O)[C@@H](O)[C@H]2O)c1 [Example 5, nicotinamide mononucleotide]
- Bulk density [1, 4]: 1.17 g/mL

Structure (SMILES): NC(=O)c1ccc[n+]([C@@H]2O[C@H](COP(=O)([O-])O)[C@@H](O)[C@H]2O)c1 [Comparative Example 2, nicotinamide mononucleotide]
- Bulk density [1, 4]: 0.20 g/mL
